Results as given in US20060287319A1, “Anti-viral compositions comprising heterocyclic substituted phenyl furans and related compounds” (priority 2005, published 2006).
Like-named read-outs stand apart in the source and are kept apart here.

Legend:
[1] = tested on: 92THA009 (clade E, R5); conditions: read-out: EC50 (μM) (Mean ± SD)
Experimental: (§1) Inhibitory activity of compounds on infection by primary HIV-1 isolates was determined as previously described (37). PBMCs were isolated from the blood of healthy donors at the New York Blood Center by standard density gradient centrifugation using Histopaque-1077 (Sigma). The cells were plated in 75 cm^2 plastic flasks and incubated at 37° C. for 2 hrs. The nonadherent cells were collected and resuspended at 5×10^6 in 10 ml RPMI-1640 medium containing 10% FBS, 5 μg/ml PHA and 100 U/ml IL-2 (Sigma), followed by incubation at 37° C. for 3 days. The PHA-stimulated cells were infected with corresponding primary HIV-1 isolates at 0.01 multiplicity of infection (MOI) in the absence or presence of a compound at graded concentrations. Culture media were changed every 3 days. The supernatants were collected 7 days post-infection and tested for p24 antigen by ELISA as described above. The percent inhibition of p24 production and IC50 values were calculated as described above.

[2] = tested on: 92US657 (clade B, R5); conditions: read-out: EC50 (μM) (Mean ± SD)
Experimental: as §1

[3] = tested on: BCF02 (clade O, R5); conditions: read-out: EC50 (μM) (Mean ± SD)
Experimental: as §1

[4] = tested on: 93MW959 (clade C, R5); conditions: read-out: EC50 (μM) (Mean ± SD)
Experimental: as §1

[5] = tested on: RU570 (clade G, R5); conditions: read-out: EC50 (μM) (Mean ± SD)
Experimental: as §1

[6] = tested on: 94UG103 (clade A, X4R5); conditions: read-out: EC50 (μM) (Mean ± SD)
Experimental: as §1

[7] = tested on: 93BR020 (clade F, X4R5); conditions: read-out: EC50 (μM) (Mean ± SD)
Experimental: as §1

[8] = tested on: 92UG001 (clade D, X4); conditions: read-out: EC50 (μM) (Mean ± SD)
Experimental: as §1

[9] = tested on: HIV-1IIIB infected H9 cells (H9/HIV-1IIIB) and MT-2 cells; assay: HIV-1 mediated cell-cell fusion (dye transfer assay); assay type: cell-based; conditions: for EC50: H9/HIV-1IIIB with MT-2 cells, read-out: EC50 (μM) (M ± SD) for inhibition of Cell fusion; for inhibition of fusion of HIV-1IIIB infected H9 cells with uninfected MT-2 cells: dose dependent, FIG. 2
Experimental: Inhibition of cell-cell fusion. A dye transfer assay was used for detection of HIV-1 mediated cell fusion as previously described (11,25,26). H9/HIV-1IIIB cells were labeled with a fluorescent reagent, Calcein-AM (Molecular Probes, Inc., Eugene, Oreg.) and then incubated with MT-2 cells (ratio=1:5) in 96-well plates at 37° C. for 2 hrs in the presence or absence of compounds tested. The fused and unfused Cacein-labeled HIV-1-infected cells were counted under an inverted fluorescence microscope (Zeiss, Germany) with an eyepiece micrometer disc. The percentage of inhibition of cell fusion and the IC50 values were calculated as previously described (11).

[10] = tested on: HIV-1 MN; conditions: read-out: IC50 (μM) (Mean ± SD); HIV-1 strain MN
Experimental: (§2) Assessment of anti-HIV-1 infectivity. The inhibitory activity of compounds on infection by laboratory-adapted HIV-1 strains was determined as previously described (34). In brief, 1×10^4 MT-2 cells were infected with HIV-1 at 100 TCID50 (50% tissue culture infective dose) in 200 μl of RPMI 1640 medium containing 10% FBS in the presence or absence of compounds at graded concentrations overnight. For the time-of-addition assay, compounds were added at various time post-infection. Then the culture supernatants were removed and fresh media were added. On the fourth day post-infection, 100 μl of culture supernatants were collected from each well, mixed with equal volumes of 5% Triton X-100 and assayed for p24 antigen, which was quantitated by ELISA (23). Briefly, the wells of polystyrene plates (Immulon 1B, Dynex Technology, Chantilly, Va.) were coated with HIV immunoglobulin (HIVIG), which was prepared from plasma of HIV-seropositive donors with high neutralizing titers against HIV-1IIIB as previously described (36) in 0.085 M carbonate-bicarbonate buffer (pH 9.6) at 4° C. overnight, followed by washes with PBS-T buffer (0.01M PBS containing 0.05% Tween-20) and blocking with PBS containing 1% dry fat-free milk (Bio-Rad Inc., Hercules, Calif.). Virus lysates were added to the wells and incubated at 37° C. for 1 h. […] Reactions were terminated by addition of 1N H2SO4. Absorbance at 450 nm was recorded in an ELISA reader (Ultra 384, Tecan). Recombinant protein p24 (US Biological, Swampscott, Mass.) was included for establishing standard dose response curve.

[11] = tested on: HIV-1 AZT-R, a strain resistant to AZT; conditions: read-out: IC50 (μM) (Mean ± SD); HIV-1 strain AZT-R
Experimental: as §2

[12] = tested on: HIV-1 SF2; conditions: read-out: IC50 (μM) (Mean ± SD); HIV-1 strain SF2
Experimental: as §2

[13] = tested on: HIV-1 RF; conditions: read-out: IC50 (μM) (Mean ± SD); HIV-1 strain RF
Experimental: as §2

[14] = tested on: laboratory-adapted HIV-1 strains, including RF, SF2, MN, and AZT-R; conditions: dose-dependent
Experimental: as §2

[15] = tested on: HIV-1 IIIB; assay: HIV-1-mediated cytopathic effect (CPE); assay type: cell-based; conditions: read-out: EC50 (μM) (M ± SD) for inhibition of CPE
Source text: We thus purchased these compounds and tested their inhibitory activity on: 1) HIV-1 replication (p24 production); 2) HIV-1-mediated cytopathic effect (CPE); and 3) HIV-1 Env-induced cell-cell fusion; and their cytotoxicity to MT-2 cells.

[16] = tested on: MT-2 cells
Experimental: Detection of in vitro cytotoxicity. The in vitro cytotoxicity of compounds for MT-2 cells was measured by a colorimetric method using XTT tetrazolium dye as previously described (21). Briefly, 100 μl of a compound at a graded concentration was added to equal volume of cells (5×10^5/ml) in a well of 96-well plates. After incubation at 37° C. for 4 days, XTT (1 mg/ml; […]; PolySciences, Inc., Warrington, Pa.) was added. Four hours later, the soluble intracellular formazan was quantitated colorimetrically at 450 nm with a reference at 570 nm.

[17] = read-out: Cytotoxicity CC50 (μM) (M ± SD), MT-2 cells

Structure (SMILES)	EC50 [1] [µM]	EC50 [2] [µM]	EC50 [3] [µM]	EC50 [4] [µM]	EC50 [5] [µM]	EC50 [6] [µM]	EC50 [7] [µM]	EC50 [8] [µM]	EC50 [9] [µM]	inhibition of fusion of HIV-1IIIB infected H9 cells with uninfected MT-2 cells [9]	IC50 [10] [µM]	IC50 [11] [µM]	IC50 [12] [µM]	IC50 [13] [µM]	IC50 values, infection by other laboratory-adapted HIV-1 strains [14]	EC50 [15] [µM]	CC50 [16] [µM]	IC50 [9] [nM]	CC50 [16, 17] [µM]
CCN1C(=O)/C(=C/c2ccc(-c3cccc(C(=O)O)c3)o2)SC1=S [NB179]	6.21 ± 0.987	0.847 ± 0.356	0.886 ± 0.242	1.87 ± 0.155	0.431 ± 0.122	0.088 ± 0.047	0.143 ± 0.056	0.613 ± 0.099	3.66 ± 0.154	inhibited fusion	2.93 ± 0.362	4.39 ± 0.471	11.9 ± 1.7	4.2 ± 0.256	nanomolar range	0.924 ± 0.077	> 616	–	–
O=C(O)c1cc(-c2ccc(/C=C3\SC(=S)N(CCc4ccccc4)C3=O)o2)ccc1Cl [NB206]	0.075 ± 0.022	0.216 ± 0.054	0.073 ± 0.012	0.097 ± 0.002	0.017 ± 0.004	0.004 ± 0.001	0.084 ± 0.036	0.188 ± 0.053	0.459 ± 0.05	inhibited fusion	0.174 ± 0.027	0.046 ± 0.004	0.261 ± 0.062	0.034 ± 0.014	nanomolar range	0.092 ± 0.002	–	< 667	18.8 ± 7.48
O=C(O)c1cccc(-c2ccc(/C=C3\SC(=S)N(c4ccc(Cl)cc4Cl)C3=O)o2)c1 [NB231]	0.217 ± 0.058	1.06 ± 0.344	0.226 ± 0.003	0.876 ± 0.002	0.143 ± 0.061	0.125 ± 0.013	0.139 ± 0.033	0.19 ± 0.002	0.982 ± 0.054	inhibited fusion	1.69 ± 0.044	0.823 ± 0.053	4.68 ± 0.559	0.152 ± 0.029	nanomolar range	0.525 ± 0.126	–	–	124.1 ± 0.756
